Test results reported in ChEMBL document CHEMBL1137168, “Tubulin inhibitors. Synthesis and biological activity of HTI-286 analogs with B-segment heterosubstituents” (Bioorg Med Chem Lett, 2004).

Legend:
[1] = test system: KB 3-1; assay: Compound was tested for the cytotoxicity against KB-3-1 cell line; format: functional, cell-based; details: Homo sapiens
[2] = test system: KB; assay: Compound was tested for the cytotoxicity against KB-8-5 cell line expressing P-glycoprotein; format: functional, cell-based; details: Homo sapiens
[3] = test system: Tubulin; assay: Compound was evaluated for the inhibition of MAP-rich tubulin polymerisation at 0.3 uM
[4] = test system: KB-V1 (Homo sapiens); assay: Compound was tested for the cytotoxicity against KB-V1 cell line expressing P-glycoprotein
[5] = test system: KB 3-1; assay: Compound was tested for the cytotoxicity against KB-3-1 cell line; value ranges from 2-6 nM; format: functional, cell-based; details: Homo sapiens
[6] = test system: KB; assay: Compound was tested for the cytotoxicity against KB-8-5 cell line expressing P-glycoprotein; value ranges from 30-80 nM; format: functional, cell-based; details: Homo sapiens
[7] = test system: KB 3-1; assay: Compound was tested for the cytotoxicity against KB-3-1 cell line; value ranges from 0.6-2 nM; format: functional, cell-based; details: Homo sapiens
[8] = test system: KB; assay: Compound was tested for the cytotoxicity against KB-8-5 cell line expressing P-glycoprotein; value ranges from 1.2-5 nM; format: functional, cell-based; details: Homo sapiens

SMILES	IC50 [1]	IC50 [2]	inhibition [3]	IC50 [4]	IC50 [5]	IC50 [6]	IC50 [7]	IC50 [8]
CN[C@H](C(=O)N[C@H](C(=O)N(C)[C@H](/C=C(\C)C(=O)O)C(C)C)C(C)(C)F)C(C)(C)c1ccccc1	1.6 nM	3.5 nM	91%	117 nM	–	–	–	–
CN[C@H](C(=O)N[C@H](C(=O)N(C)[C@H](/C=C(\C)C(=O)O)C(C)C)C(C)O)C(C)(C)c1ccccc1 (some centres not stated)	275 nM	692 nM	91%	> 3000 nM	–	–	–	–
CN[C@H](C(=O)N[C@H](C(=O)N(C)[C@H](/C=C(\C)C(=O)O)C(C)C)C(C)(C)SCc1ccc(OC)cc1)C(C)(C)c1ccc(OC)cc1	15.8 nM	43.7 nM	77%	2090 nM	–	–	–	–
CN[C@H](C(=O)N[C@H](C(=O)N(C)[C@H](/C=C(\C)C(=O)O)C(C)C)C(C)OC)C(C)(C)c1ccccc1 (some centres not stated)	871 nM	1740 nM	95%	> 3000 nM	–	–	–	–
CC(=O)O[C@H]1C(=O)[C@@]2(C)[C@H]([C@H](OC(=O)c3ccccc3)[C@]3(O)C[C@H](OC(=O)[C@H](O)[C@@H](NC(=O)c4ccccc4)c4ccccc4)C(C)=C1C3(C)C)[C@]1(OC(C)=O)CO[C@@H]1C[C@@H]2O [PACLITAXEL]	–	–	–	> 3000 nM	6 nM	80 nM	–	–
CN[C@H](C(=O)N[C@H](C(=O)N(C)[C@H](/C=C(\C)C(=O)O)C(C)C)C(C)(C)[S+](C)[O-])C(C)(C)c1ccccc1 (some centres not stated)	> 3000 nM	> 3000 nM	43%	> 3000 nM	–	–	–	–
CN[C@H](C(=O)N[C@H](C(=O)N(C)[C@H](/C=C(\C)C(=O)O)C(C)C)C(C)(C)SC)C(C)(C)c1ccccc1	1.2 nM	2.2 nM	–	144 nM	–	–	–	–
CN[C@H](C(=O)N[C@H](C(=O)N(C)[C@H](/C=C(\C)C(=O)O)C(C)C)C(C)(C)O)C(C)(C)c1ccccc1	57.9 nM	95 nM	84%	> 3000 nM	–	–	–	–
CN[C@H](C(=O)N[C@H](C(=O)N(C)[C@H](/C=C(\C)C(=O)O)C(C)C)C(C)(C)SCc1ccc(OC)cc1)C(C)(C)c1ccccc1	58.8 nM	93.7 nM	94%	2290 nM	–	–	–	–
CN[C@H](C(=O)N[C@H](C(=O)N(C)[C@H](/C=C(\C)C(=O)O)C(C)C)C(C)(C)C)C(C)(C)c1ccccc1 [TALTOBULIN]	–	–	–	–	–	–	2 nM	5 nM
CN[C@H](C(=O)N[C@H](C(=O)N(C)[C@H](/C=C(\C)C(=O)O)C(C)C)C(C)(C)c1ccc(OC)cc1)C(C)(C)c1ccccc1	25.5 nM	54.9 nM	56%	1790 nM	–	–	–	–
CN[C@H](C(=O)N[C@H](C(=O)N(C)[C@H](/C=C(\C)C(=O)O)C(C)C)C(C)(C)S(C)(=O)=O)C(C)(C)c1ccccc1	178 nM	589 nM	87%	> 3000 nM	–	–	–	–
CN[C@H](C(=O)N[C@@H](C(=O)N(C)[C@H](/C=C(\C)C(=O)O)C(C)C)C(C)O)C(C)(C)c1ccccc1 (some centres not stated)	> 3000 nM	> 3000 nM	9%	> 3000 nM	–	–	–	–
CN[C@H](C(=O)N[C@H](C(=O)N(C)[C@H](/C=C(\C)C(=O)O)C(C)C)C(C)(C)SC)C(C)(C)c1ccc(OC)cc1	0.64 nM	1.8 nM	88%	62.4 nM	–	–	–	–
